Test results published in US7018612B1, “Method of preparing a radioactive rhenium complex solution” (Mallinckrodt Inc., priority 1990, dated 2006).

Assay: Influence of reaction temperature on stability of Re186-HEDP during storage at ambient temperature
Format: physicochemical

rhenium-186 labelled 1-hydroxyethylidene diphosphonate [Re186-HEDP]
Re186-HEDP content at t=0 (labelling by heating 15 minutes in a boiling water bath (just below 100° C.), t=0): 99.12% | Re186-HEDP content at t=24 h (labelling by heating 15 minutes in a boiling water bath, storage at ambient temperature, t=24 h): 93.72%
